pIC50: −log10 of the molar value. Like-named read-outs stand apart in the source and are kept apart here.
Assays:
CYP3A4 = CYP3A4 (Homo sapiens, UniProt P08684); experiment: Time-dependent CYP inhibition in pooled human liver microsomes; type: in vitro ADME
BSEP = target: T1, BSEP (Homo sapiens, UniProt O95342); experiment: Inhibition of ATP-dependent probe uptake in Sf9 membrane vesicles; type: in vitro ADME; conditions: BSEP-mediated ATP-dependent uptake of taurocholic acid
T1 construct: purchased Thermo Fisher Scientific; host or cells: Sf9
T1 sequence (O95342 whole entry): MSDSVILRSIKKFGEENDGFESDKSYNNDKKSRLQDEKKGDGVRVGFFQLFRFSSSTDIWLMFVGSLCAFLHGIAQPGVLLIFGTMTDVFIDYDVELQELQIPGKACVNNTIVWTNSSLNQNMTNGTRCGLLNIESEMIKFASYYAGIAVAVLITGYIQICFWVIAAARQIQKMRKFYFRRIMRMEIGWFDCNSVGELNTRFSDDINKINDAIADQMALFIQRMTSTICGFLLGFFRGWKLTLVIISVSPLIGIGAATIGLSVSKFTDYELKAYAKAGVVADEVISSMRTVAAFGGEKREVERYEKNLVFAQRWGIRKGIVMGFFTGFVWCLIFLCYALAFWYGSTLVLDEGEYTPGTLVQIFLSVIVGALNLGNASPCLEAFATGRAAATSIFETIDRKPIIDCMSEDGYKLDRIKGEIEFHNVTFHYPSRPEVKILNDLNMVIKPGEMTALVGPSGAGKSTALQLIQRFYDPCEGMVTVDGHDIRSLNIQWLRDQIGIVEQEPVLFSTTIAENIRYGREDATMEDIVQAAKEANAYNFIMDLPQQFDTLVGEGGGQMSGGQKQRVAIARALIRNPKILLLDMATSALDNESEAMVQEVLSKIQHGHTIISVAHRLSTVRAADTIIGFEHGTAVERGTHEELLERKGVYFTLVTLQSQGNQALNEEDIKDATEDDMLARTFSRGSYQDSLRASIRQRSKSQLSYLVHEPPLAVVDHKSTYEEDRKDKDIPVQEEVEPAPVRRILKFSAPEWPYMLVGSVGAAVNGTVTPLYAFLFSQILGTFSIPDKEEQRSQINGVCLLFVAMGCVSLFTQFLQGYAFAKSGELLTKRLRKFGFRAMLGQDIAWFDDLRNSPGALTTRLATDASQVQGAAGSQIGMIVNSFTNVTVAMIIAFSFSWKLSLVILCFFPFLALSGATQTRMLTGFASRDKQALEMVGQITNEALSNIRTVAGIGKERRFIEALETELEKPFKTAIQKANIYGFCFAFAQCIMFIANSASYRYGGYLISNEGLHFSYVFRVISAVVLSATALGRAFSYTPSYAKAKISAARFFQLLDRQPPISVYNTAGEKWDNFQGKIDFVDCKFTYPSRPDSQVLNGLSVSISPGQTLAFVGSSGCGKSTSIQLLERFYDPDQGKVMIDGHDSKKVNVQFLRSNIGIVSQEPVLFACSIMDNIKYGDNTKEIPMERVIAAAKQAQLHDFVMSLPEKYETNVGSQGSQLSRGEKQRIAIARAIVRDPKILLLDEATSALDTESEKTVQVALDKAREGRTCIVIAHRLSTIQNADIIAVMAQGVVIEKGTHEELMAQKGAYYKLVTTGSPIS

MATE1 = target: T2, MATE1 (Homo sapiens, UniProt Q96FL8); experiment: Inhibition of transporter-mediated probe uptake in CHO-K1-MATE1 cells; type: in vitro ADME
T2 construct: expressed in transfected cells; host or cells: CHO-K1
T2 sequence (Q96FL8 1-570): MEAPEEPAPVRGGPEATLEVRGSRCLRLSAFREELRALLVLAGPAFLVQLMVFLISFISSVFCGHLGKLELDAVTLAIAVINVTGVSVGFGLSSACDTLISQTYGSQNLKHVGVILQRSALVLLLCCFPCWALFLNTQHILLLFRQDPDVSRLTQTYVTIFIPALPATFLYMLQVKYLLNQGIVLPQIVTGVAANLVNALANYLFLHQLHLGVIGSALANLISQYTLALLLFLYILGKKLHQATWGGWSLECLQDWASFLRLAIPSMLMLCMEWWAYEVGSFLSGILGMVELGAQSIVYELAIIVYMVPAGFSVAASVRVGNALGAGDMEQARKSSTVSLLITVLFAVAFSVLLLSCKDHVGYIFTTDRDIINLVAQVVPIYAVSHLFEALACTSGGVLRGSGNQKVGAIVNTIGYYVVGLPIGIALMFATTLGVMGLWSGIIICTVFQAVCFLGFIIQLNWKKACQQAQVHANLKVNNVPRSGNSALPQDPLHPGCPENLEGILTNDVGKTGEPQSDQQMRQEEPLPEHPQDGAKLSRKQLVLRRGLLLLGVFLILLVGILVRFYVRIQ

BCRP = target: T3, BCRP (Homo sapiens, UniProt Q9UNQ0); experiment: Inhibition of BCRP-mediated methotrexate uptake in Sf9 membrane vesicles; type: in vitro ADME; parameters: purchased Thermo Fisher Scientific; host or cells: Sf9
T3 sequence (Q9UNQ0 1-655): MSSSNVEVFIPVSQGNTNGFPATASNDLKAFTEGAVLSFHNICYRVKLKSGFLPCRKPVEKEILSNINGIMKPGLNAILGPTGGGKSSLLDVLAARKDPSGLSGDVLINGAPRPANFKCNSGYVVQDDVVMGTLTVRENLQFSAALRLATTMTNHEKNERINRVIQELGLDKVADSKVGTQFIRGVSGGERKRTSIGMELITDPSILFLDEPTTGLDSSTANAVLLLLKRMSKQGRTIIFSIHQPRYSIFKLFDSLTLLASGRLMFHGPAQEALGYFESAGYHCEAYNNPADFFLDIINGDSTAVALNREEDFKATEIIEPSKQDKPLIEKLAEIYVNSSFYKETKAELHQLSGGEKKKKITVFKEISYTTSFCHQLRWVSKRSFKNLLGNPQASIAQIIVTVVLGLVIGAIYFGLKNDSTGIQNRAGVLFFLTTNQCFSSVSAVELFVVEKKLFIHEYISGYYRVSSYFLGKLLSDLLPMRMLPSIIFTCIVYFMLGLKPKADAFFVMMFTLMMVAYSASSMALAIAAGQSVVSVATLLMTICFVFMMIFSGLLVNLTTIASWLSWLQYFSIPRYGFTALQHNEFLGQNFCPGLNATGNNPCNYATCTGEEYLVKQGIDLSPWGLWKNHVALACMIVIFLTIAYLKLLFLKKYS

CYP2C19 = CYP2C19 (Homo sapiens, UniProt P33261); experiment: Time-dependent CYP inhibition in pooled human liver microsomes; type: in vitro ADME
Sequence of CYP2C19 (P33261 whole entry): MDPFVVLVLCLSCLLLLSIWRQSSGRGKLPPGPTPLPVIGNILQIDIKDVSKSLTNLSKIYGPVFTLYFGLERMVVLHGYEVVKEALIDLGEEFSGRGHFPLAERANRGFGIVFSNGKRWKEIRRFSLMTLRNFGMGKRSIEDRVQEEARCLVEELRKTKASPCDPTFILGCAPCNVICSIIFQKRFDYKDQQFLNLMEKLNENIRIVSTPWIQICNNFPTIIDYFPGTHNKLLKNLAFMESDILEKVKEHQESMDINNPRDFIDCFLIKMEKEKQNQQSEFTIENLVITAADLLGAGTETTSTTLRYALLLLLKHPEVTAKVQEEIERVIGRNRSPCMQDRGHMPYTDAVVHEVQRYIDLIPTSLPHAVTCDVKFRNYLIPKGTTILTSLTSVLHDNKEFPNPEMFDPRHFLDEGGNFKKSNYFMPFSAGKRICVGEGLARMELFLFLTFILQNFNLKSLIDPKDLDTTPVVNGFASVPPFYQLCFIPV

MDR1 P-gp = MDR1 P-gp (Homo sapiens, UniProt P08183); type: in vitro ADME; parameters: expressed in transfected cells; host or cells: LLC-PK1
Sequence of MDR1 P-gp (P08183 whole entry): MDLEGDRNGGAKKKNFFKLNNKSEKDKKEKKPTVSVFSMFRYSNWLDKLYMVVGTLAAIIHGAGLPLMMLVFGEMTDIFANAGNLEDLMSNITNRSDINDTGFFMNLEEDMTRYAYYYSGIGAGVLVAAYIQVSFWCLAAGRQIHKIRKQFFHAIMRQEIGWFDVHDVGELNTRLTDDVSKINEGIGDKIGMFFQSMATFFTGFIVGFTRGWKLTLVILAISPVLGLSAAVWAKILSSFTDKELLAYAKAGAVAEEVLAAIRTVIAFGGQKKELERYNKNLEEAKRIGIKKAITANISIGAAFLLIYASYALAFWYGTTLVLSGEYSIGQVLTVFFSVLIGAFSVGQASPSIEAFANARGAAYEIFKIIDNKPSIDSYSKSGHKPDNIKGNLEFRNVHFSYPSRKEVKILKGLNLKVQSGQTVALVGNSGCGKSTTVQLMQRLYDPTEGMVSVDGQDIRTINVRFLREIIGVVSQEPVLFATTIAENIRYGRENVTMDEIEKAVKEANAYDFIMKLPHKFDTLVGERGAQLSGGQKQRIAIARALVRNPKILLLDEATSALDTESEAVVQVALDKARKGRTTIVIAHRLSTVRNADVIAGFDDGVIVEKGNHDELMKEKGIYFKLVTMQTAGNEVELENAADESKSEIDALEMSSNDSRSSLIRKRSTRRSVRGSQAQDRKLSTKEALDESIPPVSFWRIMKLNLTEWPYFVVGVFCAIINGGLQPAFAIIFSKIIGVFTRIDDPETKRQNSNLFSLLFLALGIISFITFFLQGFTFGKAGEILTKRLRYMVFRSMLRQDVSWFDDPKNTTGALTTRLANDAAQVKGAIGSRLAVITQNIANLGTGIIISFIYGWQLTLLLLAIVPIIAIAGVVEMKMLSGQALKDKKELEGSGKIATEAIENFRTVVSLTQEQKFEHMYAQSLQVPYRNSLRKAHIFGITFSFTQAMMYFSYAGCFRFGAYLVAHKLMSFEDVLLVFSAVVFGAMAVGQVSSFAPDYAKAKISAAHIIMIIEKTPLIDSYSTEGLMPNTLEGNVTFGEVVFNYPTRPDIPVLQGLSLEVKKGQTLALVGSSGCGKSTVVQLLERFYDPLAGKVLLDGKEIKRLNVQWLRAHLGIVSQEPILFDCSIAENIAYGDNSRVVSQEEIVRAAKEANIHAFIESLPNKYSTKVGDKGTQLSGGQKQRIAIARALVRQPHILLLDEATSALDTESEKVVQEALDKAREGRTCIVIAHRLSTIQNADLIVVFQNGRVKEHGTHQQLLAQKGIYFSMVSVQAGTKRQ

[1] = cited from earlier work
[2] = Plasma protein binding by equilibrium dialysis, rabbit plasma; type: in vitro ADME; conditions: pH 7.4
CYP1A2 = target: T4, CYP1A2 (Homo sapiens, UniProt P05177); experiment: Reversible CYP inhibition in pooled human liver microsomes; type: in vitro ADME
T4 sequence (P05177 1-516): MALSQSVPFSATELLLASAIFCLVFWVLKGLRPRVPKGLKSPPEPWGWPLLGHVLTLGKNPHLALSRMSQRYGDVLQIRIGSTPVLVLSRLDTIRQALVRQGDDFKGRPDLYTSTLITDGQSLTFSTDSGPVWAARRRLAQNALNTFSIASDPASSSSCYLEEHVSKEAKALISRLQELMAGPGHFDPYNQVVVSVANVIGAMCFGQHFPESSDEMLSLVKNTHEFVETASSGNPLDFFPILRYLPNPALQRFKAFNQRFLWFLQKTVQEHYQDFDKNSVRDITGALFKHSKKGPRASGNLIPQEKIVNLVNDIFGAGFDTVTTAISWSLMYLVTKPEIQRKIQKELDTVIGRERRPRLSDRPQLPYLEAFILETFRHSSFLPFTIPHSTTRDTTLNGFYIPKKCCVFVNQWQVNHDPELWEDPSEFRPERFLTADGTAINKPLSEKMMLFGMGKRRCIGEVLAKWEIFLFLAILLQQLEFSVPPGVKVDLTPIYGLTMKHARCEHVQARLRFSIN

CYP2D6 = CYP2D6 (Homo sapiens, UniProt P10635); experiment: Time-dependent CYP inhibition in pooled human liver microsomes; type: in vitro ADME
Sequence of CYP2D6 (P10635 whole entry): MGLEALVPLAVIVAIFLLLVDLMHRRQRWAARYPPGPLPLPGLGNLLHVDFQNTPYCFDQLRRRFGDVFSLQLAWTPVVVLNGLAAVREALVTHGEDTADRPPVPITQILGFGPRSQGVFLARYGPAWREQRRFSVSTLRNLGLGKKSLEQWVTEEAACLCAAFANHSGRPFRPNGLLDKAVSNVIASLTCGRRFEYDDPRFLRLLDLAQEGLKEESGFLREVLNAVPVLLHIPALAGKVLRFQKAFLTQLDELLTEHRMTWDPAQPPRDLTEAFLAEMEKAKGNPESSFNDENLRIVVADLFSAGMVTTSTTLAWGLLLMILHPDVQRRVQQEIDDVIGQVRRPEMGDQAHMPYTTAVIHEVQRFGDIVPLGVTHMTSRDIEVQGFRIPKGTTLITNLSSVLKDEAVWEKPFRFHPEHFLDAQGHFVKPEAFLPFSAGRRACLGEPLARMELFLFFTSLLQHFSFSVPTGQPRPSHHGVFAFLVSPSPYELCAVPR

HIV-1 = conditions: cited from earlier work

Sequence of CYP3A4 (P08684 whole entry): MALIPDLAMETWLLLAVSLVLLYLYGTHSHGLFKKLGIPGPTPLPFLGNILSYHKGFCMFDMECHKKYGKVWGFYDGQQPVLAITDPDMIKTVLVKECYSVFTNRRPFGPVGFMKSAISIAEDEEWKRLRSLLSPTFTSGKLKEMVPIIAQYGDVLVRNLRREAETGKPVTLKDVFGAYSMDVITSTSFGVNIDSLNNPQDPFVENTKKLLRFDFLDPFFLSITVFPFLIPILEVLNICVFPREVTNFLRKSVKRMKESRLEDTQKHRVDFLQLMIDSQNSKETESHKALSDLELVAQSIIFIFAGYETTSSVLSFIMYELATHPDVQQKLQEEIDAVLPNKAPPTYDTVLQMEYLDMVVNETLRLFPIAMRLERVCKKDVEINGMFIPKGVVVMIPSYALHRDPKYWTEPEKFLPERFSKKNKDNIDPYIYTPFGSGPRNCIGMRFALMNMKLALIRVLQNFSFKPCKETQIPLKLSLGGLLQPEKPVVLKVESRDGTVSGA

C#C[C@]1(CO)O[C@@H](n2cnc3c(N)nc(F)nc32)C[C@@H]1O [Islatravir, 4′-Ethynyl-2-fluoro-2′-deoxyadenosine]
time-dependent inhibition (CYP3A4; CYP3A4, pre-incubation of 10 and 50 µM for up to 30 min): no time-dependent inhibition | DDI Potential (CYP3A4; CYP3A4 time dependent inhibition): Low risk ^h | pIC50 (CYP3A4; time dependent, CYP3A4, read-out: Islatravir IC50): < 4.30 | pIC50 (BSEP): < 4.00 | pIC50 (MATE1; MATE1, metformin uptake, read-out: Islatravir IC50): < 4.12 | Maximum Unbound Plasma Concentration (Imax,u) to IC50 Ratio (MATE1; MATE1, 60 mg, Cmax 1.01 µM, fu,p 0.96): <0.013 µM | DDI Potential (MATE1; MATE1 inhibition, FDA, EMA, PMDA guidance): Low risk | DDI Potential (BCRP; BCRP inhibition, FDA, EMA, PMDA guidance): Low risk | pIC50 (BCRP; BCRP-mediated methotrexate uptake, read-out: Islatravir IC50): < 4.00 | Maximum Unbound Plasma Concentration (Imax,u) to IC50 Ratio (BCRP; BCRP, 60 mg, Cmax 1.01 µM, fu,p 0.96): <0.010 µM | Intestinal Concentration (Igut) to IC50 Ratio (BCRP; BCRP, Igut = 60 mg/250 mL = 818 µM): <8.2 µM | inhibition at 5 min, 100 µM (BCRP; human, BCRP-containing Sf9 membrane vesicles, probe [3H]methotrexate, 100 µM islatravir, membrane vesicle assay): 35% | time-dependent inhibition (CYP2C19; CYP2C19, pre-incubation of 10 and 50 µM for up to 30 min): no time-dependent inhibition | DDI Potential (CYP2C19; CYP2C19 time dependent inhibition): Low risk ^h | pIC50 (CYP2C19; time dependent, CYP2C19, read-out: Islatravir IC50): < 4.30 | DDI Potential (MDR1 P-gp; MDR1 P-gp inhibition, FDA, EMA, PMDA guidance): Low risk | pIC50 (MDR1 P-gp; MDR1 P-gp-mediated digoxin transport, read-out: Islatravir IC50): < 3.70 | Maximum Unbound Plasma Concentration (Imax,u) to IC50 Ratio (MDR1 P-gp; MDR1 P-gp, 60 mg, Cmax 1.01 µM, fu,p 0.96): <0.005 µM | Intestinal Concentration (Igut) to IC50 Ratio (MDR1 P-gp; MDR1 P-gp, Igut = 60 mg/250 mL = 818 µM): <4.1 µM | drug-drug interaction, PK ([1]; co-administered with doravirine): no clinically meaningful effects on the PK of either drug | drug-drug interaction ([1]; co-administration with levonorgestrel/ethinyl estradiol): No significant drug–drug interactions | drug-drug interaction, PK ([1]; with tenofovir disoproxil fumarate and dolutegravir): no meaningful drug–drug interactions | fraction unbound at 24 h, 0.1 µM [2]: > 0.84 | DDI Potential (CYP1A2; CYP1A2 reversible inhibition, FDA, EMA, PMDA guidance): Low risk | Maximum Unbound Plasma Concentration (Imax,u) to Ki,u Ratio (CYP1A2; CYP1A2 reversible, 60 mg, Cmax 1.01 µM, fu,p 0.96, Ki,u = IC50/2): <0.019 µM | pIC50 (CYP1A2; reversible, CYP1A2 phenacetin O-deethylation, read-out: Islatravir IC50): < 4.00 | time-dependent inhibition (CYP2D6; CYP2D6, pre-incubation of 10 and 50 µM for up to 30 min): no time-dependent inhibition | DDI Potential (CYP2D6; CYP2D6 time dependent inhibition): Low risk ^h | pIC50 (CYP2D6; time dependent, CYP2D6, read-out: Islatravir IC50): < 4.30 | tolerability (HIV-1; participants with and without HIV across a range of doses): generally well tolerated | duration of viral load reduction maintained (HIV-1; single administration at a dose as low as 0.5 mg): 7 days | duration of viral load suppression (HIV-1; treatment-naïve PLWH, oral doses between 0.5 and 30 mg): at least 7 days

— PMC8402619 (Viruses, 2021)
